Test results as given in article PMC9475553, “SHF Acts as a Novel Tumor Suppressor in Glioblastoma Multiforme by Disrupting STAT3 Dimerization” (Advanced Science, 2022).

Test system: U87 xenograft tumor cell proliferation
Test: EdU incorporation in intracranial U87 xenografts
Type: in vivo, mouse
Conditions: 10 µg i.p. once every 2 days; EdU 24 h prior to sacrifice; vs SC; n = 6, p < 0.01
Description: Considering that the SH2 domain predominantly represents the inhibition of SHF on STAT3 dimerization and activity, we speculated that this domain may be an optional target for GBM suppression. To this end, we analyzed the mechanical interaction of SHF and STAT3. The structures of human SHF (aa265‐421) and STAT3 (aa130‐715). both of which spanned their respective SH2 domain. were simulated by Swiss‐Model server (https://swissmodel.expasy.org/). To simulate the interaction of SHF and STAT3, Discovery studio 2018 was employed to complete protein‐protein docking using ZDOCK as an initial stage. A rigid body molecular docking algorithm utilizing a fast Fourier transform (FFT) algorithm was used to further improve performance for searching in translational space. […] Next, we determined the implication of C16 in tumor inhibition. […] A concentration of 25 uM was determined to be adequate for use in the subsequent experiments. […]
Figure 7 Peptide derived from the STAT3‐binding sites of SHF is an effective GBM suppressive strategy. […] B) IF staining determined the cell penetrability and nuclear‐localization of C16. […] The relative quantification of STAT3 dimerization was listed. […] The relative quantification of STAT3/DNMT1 interaction was listed. […] The relative quantification of STAT3/DNMT1 interaction was listed. […]

C16: peptide spanning SHF amino acids 388–421, palmitic acid at the N-terminus, amidated C-terminus, 3× His tags added to the C-terminal (PFSSVPEIVHHYASRKLPIKGAEHMSLLYPVAIR; palmitic acid at the N-terminus; amidated C-terminus; left off: 3× His tags, C-terminal, kept)
EdU positive cells in xenografts: significantly decreased
